In publication PMC3565318, “Catalytic Mechanism of Short Ethoxy Chain Nonylphenol Dehydrogenase Belonging to a Polyethylene Glycol Dehydrogenase Group in the GMC Oxidoreductase Family” (International Journal of Molecular Sciences, 2013):

Biological target: T1, NPEO-DH (short ethoxy chain nonylphenol dehydrogenase) (Ensifer sp. AS08, UniProt Q2HXX0)
T1 construct: gene pegdh; complete ORF (1659 bp, 553 residues) in pCold I, His-tag, expressed in E. coli BL21(DE3) pLysS, Ni-NTA purified; FAD flavoprotein
Assay: stopped-flow, absorbance at […] nm
Type: biochemical
Conditions: electron acceptor; PEG 1000-reduced enzyme, 0.01 mM DCIP, 0.1 M Tris-HCl pH 8.0, 30 °C

T1 sequence (Q2HXX0 entry or part of it): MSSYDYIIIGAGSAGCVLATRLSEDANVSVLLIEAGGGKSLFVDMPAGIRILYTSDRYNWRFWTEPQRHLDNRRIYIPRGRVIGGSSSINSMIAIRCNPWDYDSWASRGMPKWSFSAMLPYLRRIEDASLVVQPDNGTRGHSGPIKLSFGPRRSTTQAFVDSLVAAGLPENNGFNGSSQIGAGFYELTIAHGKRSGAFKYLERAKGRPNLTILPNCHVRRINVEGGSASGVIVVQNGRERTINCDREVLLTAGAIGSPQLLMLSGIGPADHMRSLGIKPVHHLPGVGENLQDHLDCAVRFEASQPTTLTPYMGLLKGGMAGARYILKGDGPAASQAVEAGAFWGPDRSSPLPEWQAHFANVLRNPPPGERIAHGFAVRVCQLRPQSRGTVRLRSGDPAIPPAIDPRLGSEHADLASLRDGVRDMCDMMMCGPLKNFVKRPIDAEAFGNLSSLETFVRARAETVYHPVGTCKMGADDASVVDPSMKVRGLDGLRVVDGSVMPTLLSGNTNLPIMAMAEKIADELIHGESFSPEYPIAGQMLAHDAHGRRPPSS

O=C1C(Cl)=CC(=Nc2ccc(O)cc2)C=C1Cl [2,6-dichloroindophenol]
stopped-flow, absorbance at 600 nm: performed with the reduced form of enzyme (reduced flavin) and a minimal concentration of DCIP
